In patent US8975265B2, “Substituted imidazo[1,2-a]pyrimidines and —pyridines” (Bayer Intellectual Property GmbH, priority 2010, dated 2015):

Key:
[1] = test system: KPL-4 breast cancer cell line; test: Tumor cell proliferation assay (CellTiter-Glo, 72 h), KPL-4; format: cell-based
Procedure: Biological Assay 4.0: Tumor Cell Proliferation Assays
Compounds were tested in a cell-based assay that measures the capacity of the compounds to inhibit tumour cell proliferation following a 72h drug exposure. Cell viability is determined using CellTiter-Glow® (CTG, Promega, cat# G7571/2/3). The CellTiter-Glo® Luminescent Cell Viability Assay is a homogeneous method to determine the number of viable cells in culture. Detection is based on using the luciferase reaction to measure the amount of ATP from viable cells. The amount of ATP in cells correlates with cell viability. Within minutes after a loss of membrane integrity, cells lose the ability to synthesize ATP, and endogenous ATPases destroy any remaining ATP; thus the levels of ATP fall precipitously.
For each cell line assayed, cells were plated onto a separate plate for determination of […] at t=0 hour and t=72 hour time points. Following overnight incubation at 37° C., chemiluminescence values for the t=0 samples were determined after adding 10 μl medium and 100 μl CTG solution according to manufacture protocol. Plates for the t=72 hour time points were treated with compounds diluted into growth medium at ten times final concentration added in 10 μL to the cell culture plate. Cells were then incubated for 72 hours at 37° C. Chemiluminescence values for the t=72 hour samples were determined. […] Experiments were controlled using a reference compound as standard.

[2] = test system: p-AKT1/2/3-S473 in KPL4 breast tumour cell line; test: Cellular p-AKT1/2/3-S473 assay; format: cell-based; details: KPL4 breast tumour cell line, 2 hours treatment; read-out: pAKT-S743 median IC50
Procedure: The molecular mechanism of action was investigated in a set of experiments to assess the inhibition of the PI3K-AKT-mTOR pathway in responsive cell lines such as KPL4 breast tumour cell line (PIK3CAH1047R, HER20/E and hormone independent). The phospho-substrates of PI3K-AKT-mTOR axis were used as the read-outs to reflect pathway inhibition. Cells were seeded at 60-80% confluency per well in 96-well cell culture plates. After overnight incubation at 37° C. 5% CO2, cells were treated with compounds and vehicle at 37° C. for 2 hours. […] All measurements where at least done in duplicates and confirmed by independent repetition.
Alternatively pAKT-S473 was measured using the “Akt Duplex” of the MULTI-SPOT® Assay System (Fa. Meso Scale Discovery, Cat# N41100B-1) following manufacturers instructions. Each assay used 20 μg of protein extract and measured total AKT and p-AKT content simultaneously in one well. All measurements where at least done in duplicates and confirmed by independent repetition. Values for P-AKT are expressed as percentage of P-AKT level compared to total-AKT content of the extracts.

[3] = biological target: His-tagged human recombinant kinase full-length Akt1 (Homo sapiens (Human), UniProt P31749); test: Akt1 kinase assay (TR-FRET); format: biochemical; details: 10 μM ATP; read-out: Akt1, median IC50
His-tagged human recombinant kinase full-length Akt1, sequence (P31749 whole entry): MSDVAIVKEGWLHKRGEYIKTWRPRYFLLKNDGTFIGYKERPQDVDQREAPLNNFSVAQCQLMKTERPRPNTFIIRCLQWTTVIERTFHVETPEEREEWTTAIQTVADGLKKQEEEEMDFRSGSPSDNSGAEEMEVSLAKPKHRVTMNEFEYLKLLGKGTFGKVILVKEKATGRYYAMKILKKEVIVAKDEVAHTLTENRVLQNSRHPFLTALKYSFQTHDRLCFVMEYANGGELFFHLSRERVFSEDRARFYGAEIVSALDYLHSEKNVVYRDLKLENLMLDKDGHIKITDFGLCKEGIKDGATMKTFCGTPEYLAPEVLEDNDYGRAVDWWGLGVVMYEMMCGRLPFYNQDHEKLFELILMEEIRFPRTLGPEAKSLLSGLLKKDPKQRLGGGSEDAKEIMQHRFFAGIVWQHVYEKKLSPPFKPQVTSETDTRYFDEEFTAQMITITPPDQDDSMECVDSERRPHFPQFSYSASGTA
Procedure: Biological Assay 1.0: Akt1 Kinase Assay
Akt1 inhibitory activity of compounds of the present invention was quantified employing the Akt1 TR-FRET assay as described in the following paragraphs.
As substrate for the kinase reaction the biotinylated peptide biotin-Ahx-[…] (C-terminus in amide form) was used which can be purchased e.g. from the company Biosynthan GmbH (Berlin-Buch, Germany).
For the assay 50 nl of a 100 fold concentrated solution of the test compound in DMSO was pipetted into a black low volume 384 well microtiter plate (Greiner Bio-One, Frickenhausen, Germany), 2 μl of a solution of Akt1 in assay buffer [50 mM TRIS/HCl pH 7.5, 5 mM MgCl2, 1 mM dithiothreitol, 0.02% (v/v) Triton X-100 (Sigma)] were added and the mixture was incubated for 15 min at 22° C. to allow prebinding of the test compounds to the enzyme before the start of the kinase reaction. […] The concentration of Akt1 in the assay was adjusted depending of the activity of the enzyme lot and was chosen appropriate to have the assay in the linear range, typical enzyme concentrations were in the range of about 0.05 ng/μl (final conc. in the 5 μl assay volume).
The resulting mixture was incubated 1 h at 22° C. to allow the binding of the biotinylated phosphorylated peptide to the streptavidine-XL665 and the antibodies. Subsequently the amount of phosphorylated substrate was evaluated by measurement of the resonance energy transfer from the anti-mouse-IgG-Eu-Chelate to the streptavidine-XL665.

Structure (SMILES)	IC50 ([1]; KPL4, 72h drug exposure) [nM]	IC50 [2] [nM]	IC50 [3] [nM]	IC50 ([1]; 72h drug exposure) [nM]
NC1(c2ccc(-c3nc4cc(-c5ccccn5)ccn4c3-c3ccccc3)cc2)CCC1 [Example 2-111]	1800	140	–	–
COc1ccn2c(-c3ccccc3)c(-c3ccc(C4(N)CCC4)cc3)nc2c1 [Example 2-8]	1800	237	96	–
COC(=O)/C=C/c1ccn2c(-c3ccccc3)c(-c3ccc(C4(N)CCC4)cc3)nc2c1 [Example 2-123]	2400	268	345	–
COC(=O)c1cccn2c(-c3ccccc3)c(-c3ccc(C4(N)CCC4)cc3)nc12 [Example 2-23]	9800	1010	47	–
CNC(=O)c1ccn2c(-c3ccccc3)c(-c3ccc(C4(N)CCC4)cc3)nc2c1 [Example 2-122]	1200	46	409	–
CCOC(=O)c1ccn2c(-c3ccccc3)c(-c3ccc(C4(N)CCC4)cc3)nc2c1 [Example 2-119]	4200	725	86	–
Cn1cc(-c2ccn3c(-c4ccccc4)c(-c4ccc(C5(N)CCC5)cc4)nc3c2)cn1 [Example 2-150]	1700	66	558	–
Cc1ccn2c(-c3ccccc3)c(-c3ccc(C4(N)CCC4)cc3)nc2c1 [Example 2-4]	2000	292	829	–
NC1(c2ccc(-c3nc4c(Br)cccn4c3-c3ccccc3)cc2)CCC1 [Example 2-39]	1600	32	–	–
NC(=O)/C=C/c1ccn2c(-c3ccccc3)c(-c3ccc(C4(N)CCC4)cc3)nc2c1 [Example 2-124]	2300	101	–	–
NC1(c2ccc(-c3nc4cc(C(=O)N5CCCC5)ccn4c3-c3ccccc3)cc2)CCC1 [Example 2-42]	9200	1240	19400	–
NC1(c2ccc(-c3nc4ccc(Br)cn4c3-c3ccccc3)cc2)CCC1 [Example 2-16]	1900	477	–	–
CNC(=O)c1ccc2nc(-c3ccc(C4(N)CCC4)cc3)c(-c3ccccc3)n2c1 [Example 2-9]	900	62	–	–
COC(=O)c1cc(Cl)c2nc(-c3ccc(C4(N)CCC4)cc3)c(-c3ccccc3)n2c1 [Example 2-60]	7700	655	31	–
COC(=O)/C=C/c1ccc2nc(-c3ccc(C4(N)CCC4)cc3)c(-c3ccccc3)n2c1 [Example 2-141]	–	361	196	5300
COc1ccc(COc2ccn3c(-c4ccccc4)c(-c4ccc(C5(N)CCC5)cc4)nc3n2)cn1 [Example 2-26]	1900	90	221	–
NC1(c2ccc(-c3nc4nc(OCCN5CCCC5=O)ccn4c3-c3ccccc3)cc2)CCC1 [Example 2-64]	3200	203	1660	–
COCCOc1ccn2c(-c3ccccc3)c(-c3ccc(C4(N)CCC4)cc3)nc2n1 [Example 2-27]	1900	111	1190	–
NC1(c2ccc(-c3nc4ccc(C5CC5)cn4c3-c3ccccc3)cc2)CCC1 [Example 2-63]	2000	256	734	–
C=Cc1cccn2c(-c3ccccc3)c(-c3ccc(C4(N)CCC4)cc3)nc12 [Example 2-49]	8700	303	–	–
NC1(c2ccc(-c3nc4cc(Br)ccn4c3-c3ccccc3)cc2)CCC1 [Example 2-40]	1900	237	–	–
NC1(c2ccc(-c3nc4nc(OC5CCCCC5)ccn4c3-c3ccccc3)cc2)CCC1 [Example 2-31]	1900	–	–	–
Cc1cnc2nc(-c3ccc(C4(N)CCC4)cc3)c(-c3ccccc3)n2c1 [Example 1-6]	1000	–	–	–
N[C@]1(c2ccc(-c3nc4nc(O)ccn4c3-c3ccccc3)cc2)C[C@H](O)C1 [Example 3-0, 2-[4-(cis-1-amino-3-hydroxy-cyclobutyl)-phenyl]-3-phenyl-imidazo[1,2-a]pyrimidin-7-ol]	–	–	384	–

Structure (SMILES)	IC50 ([1]; KPL4, 72h drug exposure) [nM]	IC50 [2] [nM]	IC50 [3] [nM]	IC50 ([1]; 72h drug exposure) [nM]
NC1(c2ccc(-c3nc4ncccn4c3-c3ccccc3)cc2)CCC1 [Example 1-0, 1-[4-(3-phenyl-imidazo[1,2-a]pyrimidin-2-yl)-phenyl]-cyclobutylamine]	1500	–	348	–
CC(C)Oc1ccn2c(-c3ccccc3)c(-c3ccc(C4(N)CCC4)cc3)nc2n1 [Example 2-30]	2300	464	–	–
COc1cnc2nc(-c3ccc(C4(N)CCC4)cc3)c(-c3ccccc3)n2c1 [Example 1-7]	1000	38	–	–
NC1(c2ccc(-c3nc4c(Cl)cccn4c3-c3ccccc3)cc2)CCC1 [Example 2-45]	1800	28	–	–
CCOc1cnc2nc(-c3ccc(C4(N)CCC4)cc3)c(-c3ccccc3)n2c1 [Example 1-8]	2300	–	–	–
NC1(c2ccc(-c3nc4nc(O)ccn4c3-c3ccccc3)cc2)CCC1 [Example 2-1]	5400	–	544	–
N#Cc1cccn2c(-c3ccccc3)c(-c3ccc(C4(N)CCC4)cc3)nc12 [Example 2-3]	2400	32	–	–
NC1(c2ccc(-c3nc4ccc(F)cn4c3-c3ccccc3)cc2)CCC1 [Example 2-46]	1800	59	–	–
NC1(c2ccc(-c3nc4nc(C5CC5)ccn4c3-c3ccccc3)cc2)CCC1 [Example 1-2]	1800	–	–	–
COC(=O)c1ccc2nc(-c3ccc(C4(N)CCC4)cc3)c(-c3ccccc3)n2c1 [Example 2-36]	10000	1020	–	–
CCOc1cccn2c(-c3ccccc3)c(-c3ccc(C4(N)CCC4)cc3)nc12 [Example 2-19]	1600	93	–	–
CCCOc1ccn2c(-c3ccccc3)c(-c3ccc(C4(N)CCC4)cc3)nc2n1 [Example 2-2]	1700	250	–	–
CCOc1ccn2c(-c3ccccc3)c(-c3ccc(C4(N)CCC4)cc3)nc2n1 [Example 2-29]	1800	–	190	–
NC1(c2ccc(-c3nc4c(F)cccn4c3-c3ccccc3)cc2)CCC1 [Example 2-44]	1500	48	–	–
COCCNCc1ccc2nc(-c3ccc(C4(N)CCC4)cc3)c(-c3ccccc3)n2c1 [Example 2-24]	4500	3320	–	–
COc1cccn2c(-c3ccccc3)c(-c3ccc(C4(N)CCC4)cc3)nc12 [Example 2-12]	1300	159	–	–
Cc1ccn2c(-c3ccccc3)c(-c3ccc(C4(N)CCC4)cc3)nc2n1 [Example 1-1]	2000	–	–	–
NC1(c2ccc(-c3nc4c(CO)cccn4c3-c3ccccc3)cc2)CCC1 [Example 2-15]	3200	163	–	–
NC1(c2ccc(-c3nc4ccc(-c5cn[nH]c5)cn4c3-c3ccccc3)cc2)CCC1 [Example 2-132]	1700	40	–	–
COCc1ccc2nc(-c3ccc(C4(N)CCC4)cc3)c(-c3ccccc3)n2c1 [Example 2-10]	1900	428	–	–
NC1(c2ccc(-c3nc4nc(Oc5ccccc5)ccn4c3-c3ccccc3)cc2)CCC1 [Example 2-32]	1800	–	–	–
NC1(c2ccc(-c3nc4cc(CO)ccn4c3-c3ccccc3)cc2)CCC1 [Example 2-14]	3000	510	–	–
CC(O)c1ccc2nc(-c3ccc(C4(N)CCC4)cc3)c(-c3ccccc3)n2c1 (centres unmarked) [Example 2-13]	2200	758	–	–
